Reference: PMC11091968, “Degradation of the α-Carboxyl Terminus 11 Peptide: In Vivo and Ex Vivo Impacts of Time, Temperature, Inhibitors, and Gender in Rat” (ACS Pharmacology & Translational Science, 2024)
Structures can show the parent of a compound that is named as a salt. Where two headings read alike, the source gives them in different places. Residues, ends and D or L forms follow the SMILES beside them. *: point of attachment. Biotin = O=C1N[C@H]2[C@H](CS[C@H]2CCCCC(=O)*)N1; Ahx = NCCCCCC(=O)O

Legend:
papain = settings: against papain; 8 (Table S4); cited from earlier work
Description: (§1) page 5: S-5 Table S4. Protease and phosphatase inhibitor cocktail and their major targets. Abbreviations: AEBSF: 4-(2-aminoethyl) benzenesulfonyl fluoride hydrochloride; ATPase: adenosine 5′ -triphosphatase; E-64: L-trans-3-carboxyoxiran-2-carbonyl-L-leucylagmatine; IC 50: half maximal inhibitory concentration;; Ki: inhibitory constant; MW: molecular weight; N/A: not applicable; PP1 or 2A: protein ph osphatase 1 or 2A; PTP: protein tyrosine phosphatase; K293: human embryonic kidney cell line; HS596: human HS683 glioma cell line; SKN695: human SK-N-SH neuroblastoma cell line. Ingredient MW (Da ...

HS596 cells = settings: tested on HS596 cells (human HS683 glioma cell line); ref 1-3 (Table S4); cited from earlier work
Description: as §1

K293 cells = settings: tested on K293 cells (human embryonic kidney cell line); ref 1-3 (Table S4); cited from earlier work
Description: as §1

SKN695 cells = settings: tested on SKN695 cells (human SK-N-SH neuroblastoma cell line); ref 1-3 (Table S4); cited from earlier work
Description: as §1

[1] = tested on: serine/threonine protein phosphatases 2A; settings: against serine/threonine protein phosphatases 2A; 14 (Table S4); cited from earlier work
Description: as §1

[2] = tested on: serine/threonine protein phosphatases; settings: against serine/threonine protein phosphatases; 14 (Table S4); cited from earlier work
Description: as §1

phosphatidylserine = settings: cited from earlier work
Description: as §1

[3] = target: lysosomal and prostatic acid phosphatases; settings: against lysosomal and prostatic acid phosphatases; 21 (Table S4); cited from earlier work
Description: as §1

[4] = In vivo "pharmacokinetic" analysis of αCT11 in plasma after tail vein injection; set-up: species or system rat; settings: tail vein injection to 100 μM in blood, LC-MS/MS, n = 3
Procedure: A second group of rats (only male) was not subjected to MI but injected (via the tail vein) with the same concentration of αCT11 as described in the Rat Model of I/R MI and Tail Vein Injection of αCT11 section. After injection, about 250–350 μL of blood was withdrawn at 1, 5, and 10 min following administration and transferred into an anticlotting tube containing heparin. Plasma was then separated at 4 °C and 2000g for 10 min using an Eppendorf Centrifuge 5810R (Eppendorf North America, Framingham, MA) and stored at −80 °C or used immediately for liquid chromatography tandem mass spectrometry (LC/MS-MS; described in the Prepreparation and Measurements of Plasma Containing αCT11 for LC/MS-MS Analysis section).
Plasma samples collected from either in vivo (see the In Vivo “Pharmacokinetic” Analysis of αCT11 section) or ex vivo (see the Ex Vivo Degradation Analysis of αCT11 in Rat Plasma section) groups were processed in the same way outlined here, according to the modified protocol from a previous publication.[36] Briefly, 100 μL of plasma was added to a 0.5 mL low-adhesion microcentrifuge tube containing 4% FA in 200 μL of ACN [see Table S1]. […] The samples were either stored at 4 °C up to 4 weeks (see the Results section) or analyzed immediately using a Waters H-Class UPLC mass spectrometer (Milford, MA) and its accompanying MassLynx software, version 4.2 (Milford, MA). […]

[5] = Ex vivo degradation of αCT11 in isolated rat plasma; assay type: in vitro ADME; settings: for remaining at 5 min, 100 μM: 100 μM αCT11, 5 min
Description: A third group of rats (including both males and females) was not subjected to either MI or the tail vein injection of αCT11. Instead, after injection of heparin (300 U/mL blood, the total units of heparin were estimated from body weight of each rat), as much blood as possible was collected under deep anesthesia via a cardiac puncture with a 21G needle connected to a syringe containing heparin. Blood was then transferred into an anticlotting tube on ice, followed by plasma separation as described above. All plasma collected from either males or females were randomly sorted into 4 groups (G) per gender [G1: 22 °C; G2: 37 °C, G3: 22 °C + inhibitor cocktail and G4: 37 °C + inhibitor cocktail] and incubated at 22 °C [in an Eppendorf thermomixer (Eppendorf North America, Framingham, MA)] or at 37 °C [in a digital dry bath (Benchmark, Sayreville, NJ)] with or without additions of αCT11 (at a final concentration of 100 μM in each tube) in the presence or absence of a PTase/PPTase inhibitor cocktail (at a final concentration of 1.5× of the original concentration). It took less than ∼30 s for the 22 °C groups to reach 22 °C and ∼75 s for the 37 °C groups to reach 37 °C. […], 100 μL of plasma was taken in triplicate from the tube of each animal at 0, 5, 30, and 60 min following additions of αCT11 and the cocktail inhibitors (if applied). The collected samples were then transferred to new tubes for further preparation prior to LC/MS-MS analysis.
Plasma samples collected from either in vivo (see the In Vivo “Pharmacokinetic” Analysis of αCT11 section) or ex vivo (see the Ex Vivo Degradation Analysis of αCT11 in Rat Plasma section) groups were processed in the same way outlined here, according to the modified protocol from a previous publication.[36] Briefly, 100 μL of plasma was added to a 0.5 mL low-adhesion microcentrifuge tube containing 4% FA in 200 μL of ACN [see Table S1]. The tubes were slightly (∼1 min) vortexed and centrifuged for 5 min at 11,332g using an Eppendorf Centrifuge 5424R (Eppendorf North America, Framingham, MA) to recover the supernatants. 100 μL of the supernatant was then combined with 100 μL of deionized H2O in 2 mL amber autovials with a low-volume insert and capped. The samples were either stored at 4 °C up to 4 weeks (see the Results section) or analyzed immediately using a Waters H-Class UPLC mass spectrometer (Milford, MA) and its accompanying MassLynx software, version 4.2 (Milford, MA).
For measurement, the sample extracts were first separated chromatographically with an HSS T3 column and matching VanGurd column at 40 °C. A 4 μL sample was injected onto the column using a refrigerated autosampler at 5 °C. Mobile phase A was comprised of 1% FA in H2O and mobile phase B was comprised of 1% FA in ACN (Table S1). The mobile phase was delivered to the column at a flow rate of 0.4 mL/min. Tuning was performed on each analyte by direct infusion of a standard solution (0.1 ng/μL) at a rate of 10 μL/min. The parent and production transitions for αCT11 peptide are shown in Table S2, while the mass spectrometry parameters used for detecting αCT11 are listed in Table S3.
Data were collected at 0 min in triplicate from each group using LC/MS-MS and were first calibrated as 100%; all other data from the same group were then normalized as % change over the data at 0 min. A Student’s t-test was used for comparison of 2 groups, while 1- or 2-way ANOVA followed by Tukey’s test was used for comparisons of ≥3 groups with 1 or 2 factors. All data were expressed as mean ± standard error (SE), if not otherwise specified, with p < 0.05 considered statistically significant. Data were analyzed and plotted using GraphPad Prism 9.3.1 (San Diego, CA) and Microsoft 2019 MS Excel (Redmond, WA).

[6] = Storage stability at 4 °C of plasma samples prepared for mass spectrum analysis; assay type: physicochemical; settings: mass spectrum samples from male rat plasma
Procedure: Plasma samples collected from either in vivo (see the In Vivo “Pharmacokinetic” Analysis of αCT11 section) or ex vivo (see the Ex Vivo Degradation Analysis of αCT11 in Rat Plasma section) groups were processed in the same way outlined here, according to the modified protocol from a previous publication.[36] Briefly, 100 μL of plasma was added to a 0.5 mL low-adhesion microcentrifuge tube containing 4% FA in 200 μL of ACN [see Table S1]. The tubes were slightly (∼1 min) vortexed and centrifuged for 5 min at 11,332g using an Eppendorf Centrifuge 5424R (Eppendorf North America, Framingham, MA) to recover the supernatants. 100 μL of the supernatant was then combined with 100 μL of deionized H2O in 2 mL amber autovials with a low-volume insert and capped. The samples were either stored at 4 °C up to 4 weeks (see the Results section) or analyzed immediately using a Waters H-Class UPLC mass spectrometer (Milford, MA) and its accompanying MassLynx software, version 4.2 (Milford, MA). […]
Following the initial measurements at Week 0 (i.e., Day 0 when fresh plasma was isolated and αCT11 concentrations were measured at 0 min at 22 °C and 37 °C), the same samples used in each conduction were stored at 4 °C for 1 week (A), 4 weeks (B), or 6 weeks (C) before being used again to measure the peptide concentrations. […]

plasmin = settings: against plasmin; 10 (Table S4); cited from earlier work
Description: as §1

trypsin = settings: against trypsin; 10 (Table S4); cited from earlier work
Description: as §1

human cathepsin D = tested on: human cathepsin D; set-up: method as in earlier work; settings: against human cathepsin D; 11 (Table S4); cited from earlier work
Description: as §1, with “line.” for “line. Ingredient MW (Da ...”

Aspartic proteases = settings: enzyme not given; 11 (Table S4); cited from earlier work
Description: as §1

Molecule: CC(C)C[C@H](NC(=O)[C@H]1O[C@@H]1C(=O)O)C(=O)NCCCCN=C(N)N (relative stereo) [E-64, L-trans-3-carboxyoxiran-2-carbonyl-L-leucylagmatine]
- Ki (papain): 0.009 µM

Molecule: NCCc1ccc(S(=O)(=O)F)cc1 [AEBSF, 4-(2-aminoethyl) benzenesulfonyl fluoride hydrochloride]
- IC50 (HS596 cells): 300 µM
- IC50 (K293 cells): 1000 µM
- IC50 (SKN695 cells): 300 µM

Molecule: C[C@@]12C(=O)OC(=O)[C@]1(C)[C@H]1CC[C@@H]2O1 [Cantharidin]
- IC50 [1]: 0.04 µM
- IC50 [2]: 0.47 µM

Molecule: [Na+].[Na+].[Na+].[O]=[V]([O-])([O-])[O-] [Sodium orthovanadate]
- IC50 (phosphatidylserine): 100 µM

Molecule: O=C([O-])C(O)C(O)C(=O)[O-].[Na+].[Na+] (centres unmarked) [Sodium tartrate]
- Ki [3]: 1 µM

Molecule: CC[C@H](C)[C@H](NC(=O)[C@H](CCC(=O)O)NC(=O)[C@H](CC(C)C)NC(=O)[C@H](CC(=O)O)NC(=O)[C@H](CC(=O)O)NC(=O)[C@@H]1CCCN1C(=O)[C@H](CCCNC(=N)N)NC(=O)[C@@H]1CCCN1C(=O)[C@H](CCCNC(=N)N)NC(=O)CCCCCNC(=O)CCCC[C@@H]1SC[C@@H]2NC(=O)N[C@@H]21)C(=O)O [αCT11] ({Biotin-Ahx}-RPRPDDLEI-OH)
- reduction of the initial αCT11 concentration in plasma ([4]; male rats without MI, about 5 min postinjection): ~53%
- αCT11 in blood plasma 10 min after tail vein injection ([4]; male rats, 10 min postinjection): almost undetectable
- remaining at 5 min, 100 μM ([5]; isolated heparinised female rat plasma, 22 °C, with 1.5× PTase/PPTase inhibitor cocktail, LC-MS/MS, mean ± SE, n = 3 rats, read-out: percentage of αCT11 (normalized to 0 min)): 80.9 ± 3.7%
- remaining at 1 h, 100 μM ([5]; isolated heparinised female rat plasma, 22 °C, with 1.5× PTase/PPTase inhibitor cocktail, 100 μM αCT11, 60 min, LC-MS/MS, mean ± SE, n = 3 rats, read-out: percentage of αCT11 (normalized to 0 min)): 13.2 ± 3.3%
- remaining at 5 min, 100 μM ([5]; isolated heparinised female rat plasma, 37 °C, no inhibitors, LC-MS/MS, mean ± SE, n = 3 rats (9 replicates), read-out: αCT11 level, % of starting concentration (0 min)): 51.4 ± 3.5%
- αCT11 level, % of starting concentration (0 min) ([5]; isolated heparinised female rat plasma, 37 °C, no inhibitors, 100 μM αCT11, 30 min, LC-MS/MS, mean ± SE, n = 3 rats (9 replicates)): 1.6 ± 0.6%
- remaining at 1 h, 100 μM ([5]; isolated heparinised female rat plasma, 37 °C, no inhibitors, 100 μM αCT11, 60 min, LC-MS/MS, mean ± SE, n = 3 rats (9 replicates), read-out: αCT11 level, % of starting concentration (0 min)): 0.1 ± 0.03%
- remaining at 0.5 h, 100 μM ([5]; isolated heparinised male rat plasma, 22 °C, with 1.5× PTase/PPTase inhibitor cocktail, 100 μM αCT11, 30 min, LC-MS/MS, mean ± SE, n = 3 rats, read-out: percentage of αCT11 (normalized to 0 min)): 41.6 ± 3.3%
- remaining at 1 h, 100 μM ([5]; isolated heparinised male rat plasma, 22 °C, with 1.5× PTase/PPTase inhibitor cocktail, 100 μM αCT11, 60 min, LC-MS/MS, mean ± SE, n = 3 rats, read-out: percentage of αCT11 (normalized to 0 min)): 19.1 ± 2.7%
- remaining at 5 min, 100 μM ([5]; isolated heparinised male rat plasma, 37 °C, no inhibitors, LC-MS/MS, mean ± SE, n = 3 rats (9 replicates), read-out: αCT11 level, % of starting concentration (0 min)): 61.9 ± 5.7%
- remaining at 0.5 h, 100 μM ([5]; isolated heparinised male rat plasma, 37 °C, no inhibitors, 100 μM αCT11, 30 min, LC-MS/MS, mean ± SE, n = 3 rats (9 replicates), read-out: αCT11 level, % of starting concentration (0 min)): 1.5 ± 1.2%
- remaining at 1 h, 100 μM ([5]; isolated heparinised male rat plasma, 37 °C, no inhibitors, 100 μM αCT11, 60 min, LC-MS/MS, mean ± SE, n = 3 rats (9 replicates), read-out: αCT11 level, % of starting concentration (0 min)): 0.04 ± 0.06%
- αCT11 in isolated plasma by 30 min ([5]; isolated rat plasma, 22 and 37 °C, no inhibitors, 30 min, LC-MS/MS): nearly undetectable
- αCT11 concentrations, male vs female rat plasma ([5]; isolated rat plasma, 22 or 37 °C, absence and presence of 1.5× inhibitors, any time point (0, 5, 30, 60 min), LC-MS/MS, n = 3): no significant differences
- αCT11 in ex vivo plasma at 60 min ([5]; isolated rat plasma, males and females, 22 °C, no inhibitors, 100 μM αCT11, 60 min, LC-MS/MS): almost undetectable
- time for αCT11 concentration to decrease to 50% in ex vivo plasma ([5]; isolated rat plasma, males and females, 22 °C, no inhibitors, 100 μM αCT11, LC-MS/MS): about 10 min
- storage time at 4 °C without significant degradation of αCT11 [6]: up to 4 weeks

Molecule: Leupeptin
- Ki (plasmin): 0.0034 µM
- Ki (trypsin): 0.0035 µM

Molecule: Pepstatin A
- IC50 (human cathepsin D): 0.021 µM
- Ki (Aspartic proteases): 0.01 nM
